Experimental data reported in patent publication US4292241A, “Antibiotic PA-31088-IV and production thereof” (Shionogi & Co., Ltd., priority 1979, dated 1981).
Each block holds one compound with its values, some of them ahead of it.

Experiments:
[1] = system: P. vulgaris 50; assay: Synergistic activity with other β-lactam antibiotics (MIC); format: cell-based
Description: (§1) (c) Synergistic activity with other β-lactam antibiotics

[2] = system: S. marcescens 39; assay: as above; format: cell-based
Description: as §1

[3] = system: Enterobactor cloacae 233; assay: Antibacterial spectrum (MIC); format: cell-based; settings: inoculum one loopful of 10^6 cfu/ml
Description: (§2) (a) Antibacterial spectrum | Inoculum size = one loopful of 10^6 cfu/ml

[4] = system: Escherichia coli NIHJ JC-2; assay: Antibacterial spectrum (MIC); format: cell-based; settings: inoculum one loopful of 10^6 cfu/ml
Description: as §2

[5] = system: Klebsiella pneumoniae SRL-1; assay: Antibacterial spectrum (MIC); format: cell-based; settings: inoculum one loopful of 10^6 cfu/ml
Description: as §2

[6] = system: Klebsiella sp. 363 (R); assay: Antibacterial spectrum (MIC); format: cell-based; settings: inoculum one loopful of 10^6 cfu/ml
Description: as §2

[7] = system: Proteus mirabilis PR-4; assay: Antibacterial spectrum (MIC); format: cell-based; settings: inoculum one loopful of 10^6 cfu/ml
Description: as §2

[8] = system: Pseudomonas aeruginosa ATCC 25619; assay: Antibacterial spectrum (MIC); format: cell-based; settings: inoculum one loopful of 10^6 cfu/ml
Description: as §2

[9] = system: Serratia marcescens ATCC 13880; assay: Antibacterial spectrum (MIC); format: cell-based; settings: inoculum one loopful of 10^6 cfu/ml
Description: as §2

[10] = system: Staphylococcus aureus 209P JC-1; assay: Antibacterial spectrum (MIC); format: cell-based; settings: inoculum one loopful of 10^6 cfu/ml
Description: as §2

[11] = system: Streptococcus pneumoniae I; assay: Antibacterial spectrum (MIC); format: cell-based; settings: inoculum one loopful of 10^6 cfu/ml
Description: as §2

[12] = molecular target: lactamase of cephalosporinase type (Enterobactor cloacae 92) (Enterobacter cloacae, UniProt P05364); assay: β-Lactamase inhibitory activity; format: biochemical; settings: β-lactamase producing bacteria Enterobactor cloacae 92, cephalosporinase type
Description: (§3) (b) β-Lactamase inhibitory activity
*produces lactamase of cephalosporinase type

[13] = system: lactamase of penicillinase type (Klebsiella sp. 363); assay: β-Lactamase inhibitory activity; format: biochemical; settings: β-lactamase producing bacteria Klebsiella sp. 363, penicillinase type
Description: as §3
**produces lactamase of penicillinase type

[14] = system: S. aureus 2132; assay: Synergistic activity with other β-lactam antibiotics (MIC); format: cell-based

Sequence of lactamase of cephalosporinase type (Enterobactor cloacae 92) (P05364 21-381): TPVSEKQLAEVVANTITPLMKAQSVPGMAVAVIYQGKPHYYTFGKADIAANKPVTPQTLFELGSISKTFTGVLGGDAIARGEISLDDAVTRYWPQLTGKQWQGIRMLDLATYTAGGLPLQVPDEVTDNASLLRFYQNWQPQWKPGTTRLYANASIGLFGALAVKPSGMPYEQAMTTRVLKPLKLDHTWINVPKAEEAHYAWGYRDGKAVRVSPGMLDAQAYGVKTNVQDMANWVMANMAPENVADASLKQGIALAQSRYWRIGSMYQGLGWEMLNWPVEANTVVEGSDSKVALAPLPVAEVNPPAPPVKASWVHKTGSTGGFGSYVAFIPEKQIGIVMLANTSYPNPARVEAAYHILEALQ

MIC of Ampicillin ([1]; PA-31088-IV 0 μg/ml): > 200 µg/mL | MIC of Ampicillin ([1]; with PA-31088-IV 2.5 μg/ml): 6.3 µg/mL | MIC of Ampicillin ([1]; with PA-31088-IV 10 μg/ml): 1.6 µg/mL | MIC of Ampicillin ([2]; PA-31088-IV 0 μg/ml): > 200 µg/mL | MIC of Ampicillin ([2]; with PA-31088-IV 2.5 μg/ml): 3.1 µg/mL | MIC of Ampicillin ([2]; with PA-31088-IV 10 μg/ml): 0.1 µg/mL
SMILES: CC1(C)S[C@@H]2[C@H](NC(=O)[C@H](N)c3ccccc3)C(=O)N2[C@H]1C(=O)O [Ampicillin, ampicillin]

Minimum Inhibitory Concentration (β-lactamase inhibitory activity) [12]: 0.98 µg/mL | Minimum Inhibitory Concentration (β-lactamase inhibitory activity) [13]: 0.06 µg/mL | MIC of PA-31088-IV ([14]; PA-31088-IV alone): > 10 µg/mL | MIC of PA-31088-IV ([1]; PA-31088-IV alone): > 10 µg/mL | MIC of PA-31088-IV ([2]; PA-31088-IV alone): > 10 µg/mL
SMILES: CC(=O)NC=CS(=O)(=O)C1=C(C(=O)O)N2C(=O)C(=C(C)CO)C2C1 (centres unmarked) [PA-31088-IV, 3-[(2-acetamidoethylene)sulfonyl]-6-(2-hydroxy-1-methylethylidene)-7-oxo-1-azabicyclo[3.2.0]hept-2-ene-2-carboxylic acid]
Minimum Inhibitory Concentration [3]: 3.13 µg/mL | Minimum Inhibitory Concentration [4]: 3.13 µg/mL | Minimum Inhibitory Concentration [5]: 1.56 µg/mL | Minimum Inhibitory Concentration [6]: 3.13 µg/mL | Minimum Inhibitory Concentration [7]: 6.25 µg/mL | Minimum Inhibitory Concentration [8]: 50 µg/mL | Minimum Inhibitory Concentration [9]: 12.5 µg/mL | Minimum Inhibitory Concentration [10]: 3.13 µg/mL | Minimum Inhibitory Concentration [11]: 0.39 µg/mL

MIC of Cefazolin ([14]; PA-31088-IV 0 μg/ml): 6.3 µg/mL | MIC of Cefazolin ([14]; with PA-31088-IV 2.5 μg/ml): 0.8 µg/mL | MIC of Cefazolin ([14]; with PA-31088-IV 10 μg/ml): 0.4 µg/mL | MIC of Cefazolin ([1]; PA-31088-IV 0 μg/ml): > 200 µg/mL | MIC of Cefazolin ([1]; with PA-31088-IV 2.5 μg/ml): 6.3 µg/mL | MIC of Cefazolin ([1]; with PA-31088-IV 10 μg/ml): 3.1 µg/mL | MIC of Cefazolin ([2]; PA-31088-IV 0 μg/ml): > 200 µg/mL | MIC of Cefazolin ([2]; with PA-31088-IV 2.5 μg/ml): 6.3 µg/mL | MIC of Cefazolin ([2]; with PA-31088-IV 10 μg/ml): 0.4 µg/mL
SMILES: Cc1nnc(SCC2=C(C(=O)O)N3C(=O)[C@@H](NC(=O)Cn4cnnn4)[C@H]3SC2)s1 [Cefazolin, cefazolin]
